Results as given in patent publication EP2459551B1, “DIHYDROBENZOINDAZOLES” (Merck Sharp & Dohme B.V., priority 2009, dated 2011).

Target: T1, human FSH receptor (Homo sapiens, UniProt P23945)
T1 sequence (P23945 18-695): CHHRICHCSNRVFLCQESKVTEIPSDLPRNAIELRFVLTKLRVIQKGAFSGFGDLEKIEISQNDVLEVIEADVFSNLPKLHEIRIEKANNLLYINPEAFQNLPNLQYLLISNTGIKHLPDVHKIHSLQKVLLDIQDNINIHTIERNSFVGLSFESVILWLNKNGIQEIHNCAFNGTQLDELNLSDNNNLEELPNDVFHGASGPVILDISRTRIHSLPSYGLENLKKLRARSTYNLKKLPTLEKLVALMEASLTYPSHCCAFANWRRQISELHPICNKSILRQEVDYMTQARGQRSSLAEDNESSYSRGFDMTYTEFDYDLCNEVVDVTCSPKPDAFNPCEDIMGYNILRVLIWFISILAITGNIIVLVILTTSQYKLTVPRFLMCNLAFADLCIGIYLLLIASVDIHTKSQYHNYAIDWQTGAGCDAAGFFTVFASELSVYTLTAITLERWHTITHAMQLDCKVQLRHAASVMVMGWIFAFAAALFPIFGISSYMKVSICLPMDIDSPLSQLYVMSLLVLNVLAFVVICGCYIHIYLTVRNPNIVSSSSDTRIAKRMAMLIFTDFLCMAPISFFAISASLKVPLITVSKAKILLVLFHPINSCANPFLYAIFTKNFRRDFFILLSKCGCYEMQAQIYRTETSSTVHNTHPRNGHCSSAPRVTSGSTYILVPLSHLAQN
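Note: CHO cells stably expressing human FSH receptor with CRE-driven firefly luciferase, luminescence read as counts per second after 4 h compound exposure in 1% DMSO.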

Description: Agonistic activity of compounds at the human FSH receptor expressed in CHO cells
Agonistic activity of the compounds at the human FSH receptor was determined in Chinese Hamster Ovary (CHO) cells stably transfected with the human FSH receptor and cotransfected with a cAMP responsive element (CRE)/promotor directing the expression of a firefly luciferase reporter gene. […] Cells (7,500 cells/well of a 384 well plate) were incubated in Dulbecco' minimal essential F12 modified medium (Invitrogen), supplemented with 1 µg/ml bovine insulin, 5 µg/ml human apotransferrin, 80 U/ml penicillin G and 80 µg/ml streptomycin with the test compounds (concentration between 0.0316 nM and 10.0 µM) in duplicate in a humidified atmosphere (95%) at 5-7% CO2 and 37°C. The final concentration of DMSO was 1%. After 4 hours of incubation, plates were allowed to adjust to room temperature for 1 hour. Then, Luclite (PerkinElmer) solution was added to the wells and cells were allowed to lyse for at least 1 hour at room temperature. Subsequently, luciferase activity was measured in a luminescence counter. The signal is expressed as counts per second (cps). The EC50 (concentration of the test compound that elicits half-maximal (50 %) luciferase stimulation compared to the compound's maximally attainable effect) and efficacy values (maximal effect of the test compound as percentage of the maximal effect of recombinant human FSH) of the compounds were determined using the software program MathIQ (version 2.0, ID Business Solutions Limited).

| Structure (SMILES) | EC50 |
| --- | --- |
| CC=Cc1ccccc1-n1nc(C(=O)N(C)C(C)(C)C)c2c1-c1cc(OC(C)C)c(OC)cc1CC2 [Example 9cb, 1-(2-(2-methylvinyl)-phenyl)-N-tert-butyl-8-isopropoxy-7-methoxy-N-methyl-4,5-dihydro-1H-benzo[g]indazole-3-carboxamide] | 1 to 10 µM |
| COc1cc2c(cc1NS(C)(=O)=O)-c1c(c(C(=O)N(C)C(C)(C)C)nn1-c1cccc(C)c1)CC2 [Example 12h] | 1 to 10 µM |
| COc1cc2c(cc1OC(C)C)-c1c(c(C(=O)N(C)C(C)(C)C)nn1-c1nc3ccccc3s1)CC2 [Example 4d, 1-(benzo[d]thiazol-2-yl)-N-tert-butyl-8-isopropoxy-7-methoxy-N-methyl-4,5-dihydro-1H-benzo[g]indazole-3-carboxamide] | 1 to 10 µM |
| C=CCc1cccc(-n2nc(C(=O)N(C)C(C)(C)C)c3c2-c2cc(OC(C)C)c(OC)cc2CC3)c1 [Example 7ca, 1-(3-allylphenyl)-N-tert-butyl-8-isopropoxy-7-methoxy-N-methyl-4,5-dihydro-1H-benzo[g]indazole-3-carboxamide] | 1 to 10 µM |
| COc1cc2c(cc1OC(C)C)-c1c(c(C(=O)N(C)C(C)(C)C)nn1-c1ccccc1F)CC2 [Example 10cb, N-tert-butyl-1-(2-fluorophenyl)-8-isopropoxy-7-methoxy-N-methyl-4,5-dihydro-1H-benzo[g]indazole-3-carboxamide] | 0.1 to 1 µM |
| COc1cc2c(cc1-c1ncco1)-c1c(c(C(=O)N(C)C(C)(C)C)nn1-c1ccccc1Cl)CC2 [Example 11ga, N-tert-butyl-1-(2-chlorophenyl)-7-methoxy-N-methyl-8-(oxazol-2-yl)-4,5-dihydro-1H-benzo[g]lindazole-3-carboxamide] | 1 to 10 µM |
| COc1cc2c(cc1NC(=O)CN1CCN(C)CC1)-c1c(c(C(=O)N(C)C(C)(C)C)nn1-c1cccc(C)c1)CC2 [Example 12ja, N-tert-butyl-7-methoxy-N-methyl-8-(2-(4-methylpiperazin-1-yl)acetamido)-1-m-tolyl-4,5-dihydro-1H-benzo[g]indazole-3-carboxamide] | 1 to 10 µM |
| COc1cc2c(cc1OC(C)C)-c1c(c(C(=O)N(C)C(C)(C)C)nn1-c1ccc(Br)cc1)CC2 [Example 13cf, N-tert-butyl-1-(4-bromophenyl)-8-isopropoxy-7-methoxy-N-methyl-4,5-dihydro-1H-benzo[g]indazole-3-carboxamide] | 1 to 10 µM |
| COc1cc2c(cc1OC(C)C)-c1c(c(C(=O)N(C)C(C)(C)C)nn1-c1ccc(C)cc1)CC2 [Example 13ca, N-tert-butyl-8-isopropoxy-7-methoxy-N-methyl-1-p-tolyl-4,5-dihydro-1H-benzo[g]indazole-3-carboxamide] | 1 to 10 µM |
| COc1cc2c(cc1NC(=O)c1cocn1)-c1c(c(C(=O)N(C)C(C)(C)C)nn1-c1cccc(C)c1)CC2 [Example 12g] | 1 to 10 µM |
| COc1cc2c(cc1NC(=O)CN1CCC1)-c1c(c(C(=O)N(C)C(C)(C)C)nn1-c1cccc(C)c1)CC2 [Example 12jd, 8-(2-(azetidin-1-yl)acetamido)-N-tert-butyl-7-methoxy-N-methyl-1-m-tolyl-4,5-dihydro-1H-benzo[g]indazole-3-carboxamide] | 1 to 10 µM |
| C=C(C)c1cccc(-n2nc(C(=O)N(C)C(C)(C)C)c3c2-c2cc(OC(C)C)c(OC)cc2CC3)c1 [Example 7cb, N-tert-butyl-8-isopropoxy-7-methoxy-N-methyl-1-(3-(prop-1-en-2-yl)phenyl)-4,5-dihydro-1H-benzo[g]indazole-3-carboxamide] | 1 to 10 µM |
| COc1cc2c(cc1NC(=O)CN(C)C)-c1c(c(C(=O)N(C)C(C)(C)C)nn1-c1cccc(C)c1)CC2 [Example 12jc, N-tert-butyl-8-(2-(dimethylamino)acetamido)-7-methoxy-N-methyl-1-m-tolyl-4,5-dihydro-1H-benzo[g]indazole-3-carboxamide] | 1 to 10 µM |
| CCc1ccc(-n2nc(C(=O)N(C)C(C)(C)C)c3c2-c2cc(OC(C)C)c(OC)cc2CC3)cc1 [Example 13cb, N-tert-butyl-1-(4-ethylphenyl)-8-isopropoxy-7-methoxy-N-methyl-4,5-dihydro-1H-benzo[g]lindazole-3-carboxamide] | 1 to 10 µM |
| COc1cc2c(cc1NC(=O)CN1CCOCC1)-c1c(c(C(=O)N(C)C(C)(C)C)nn1-c1cccc(C)c1)CC2 [Example 12jb, N-tert-butyl-7-methoxy-N-methyl-8-(2-morpholinoacetamido)-1-m-tolyl-4,5-dihydro-1H-benzo[g]indazole-3-carboxamide] | 1 to 10 µM |
| COc1ccc(-n2nc(C(=O)N(C)C(C)(C)C)c3c2-c2cc(OC(C)C)c(OC)cc2CC3)cc1 [Example 13cc, N-tert-butyl-8-isopropoxy-7-methoxy-1-(4-methoxyphenyl)-N-methyl-4,5-dihydro-1H-benzo[g]indazole-3-carboxamide] | 1 to 10 µM |

Other lines, results leading:

| EC50 | Structure (SMILES) |
| --- | --- |
| 1 to 10 µM | COc1cc2c(cc1OC)-c1c(c(C(=O)N3CCCN(C(C)=O)CC3)nn1-c1ccc(F)cc1)CC2 [Example 1f] |
| 1 to 10 µM | COc1cc2c(cc1OC(C)C)-c1c(c(C(=O)N(C)C(C)(C)C)nn1-c1ccccc1OC)CC2 [Example 10cc, N-tert-butyl-8-isopropoxy-7-methoxy-1-(2-methoxyphenyl)-N-methyl-4,5-dihydro-1H-benzo[g]indazole-3-carboxamide] |
| 1 to 10 µM | COc1cc2c(cc1OC(C)C)-c1c(c(C(=O)N(C)C(C)(C)C)nn1-c1ccccc1-c1ccoc1)CC2 [Example 9cd, N-tert-butyl-1-(2-(furan-3-yl)phenyl)-8-isopropoxy-7-methoxy-N-methyl-4,5-dihydro-1H-benzo[g]indazole-3-carboxamide] |
| 1 to 10 µM | COc1cc2c(cc1OC)-c1c(c(C(=O)N(C)C(C)(C)C)nn1-c1ccc(F)cc1)CC2 [Example 1e, N-tert-butyl-1-(4-fluorophenyl)-7,8-dimethoxy-N-methyl-4,5-dihydro-1H-benzo[g]indazole-3-carboxamide] |
| 0.1 to 1 µM | COc1cc2c(cc1OC(C)C)-c1c(c(C(=O)N(C)C(C)(C)C)nn1-c1ccccc1Br)CC2 [Example 9ca, 1-(2-bromophenyl)-N-tert-butyl-8-isopropoxy-7-methoxy-N-methyl-4,5-dihydro-1H-benzo[g]indazole-3-carboxamide] |
| 0.1 to 1 µM | COc1cc2c(cc1OC(C)C)-c1c(c(C(=O)N(C)C(C)(C)C)nn1-c1ccc(Cl)cc1)CC2 [Example 13ce, N-tert-butyl-1-(4-chlorophenyl)-8-isopropoxy-7-methoxy-N-methyl-4,5-dihydro-1H-benzo[g]indazole-3-carboxamide] |
| 0.1 to 1 µM | COc1cc2c(cc1OC(C)C)-c1c(c(C(=O)N(C)C(C)(C)C)nn1-c1ccc(F)cc1)CC2 [Example 13cd, N-tert-butyl-1-(4-fluorophenyl)-8-isopropoxy-7-methoxy-N-methyl-4,5-dihydro-1H-benzo[g]indazole-3-carboxamide] |
| 0.1 to 1 µM | COc1cc2c(cc1OC(C)C)-c1c(c(C(=O)N(C)C(C)(C)C)nn1-c1cccc(F)c1)CC2 [Example 8cb, N-tert-butyl-1-(3-fluorophenyl)-8-isopropoxy-7-methoxy-N-methyl-4,5-dihydro-1H-benzo[g]indazole-3-carboxamide] |
| 0.1 to 1 µM | COc1cc2c(cc1OC(C)C)-c1c(c(C(=O)N(C)C(C)(C)C)nn1-c1cccnc1)CC2 [Example 6b, N-tert-butyl-8-isopropoxy-7-methoxy-N-methyl-1-(pyridin-3-yl)-4,5-dihydro-1H-benzo[g]indazole-3-carboxamide] |
| 0.1 to 1 µM | COc1cccc(-n2nc(C(=O)N(C)C(C)(C)C)c3c2-c2cc(OC(C)C)c(OC)cc2CC3)c1 [Example 8cc, N-tert-butyl-8-isopropoxy-7-methoxy-1-(3-methoxyphenyl)-N-methyl-4,5-dihydro-1H-benzo[g]indazole-3-carboxamide] |
| 0.1 to 1 µM | COc1cc2c(cc1OC(C)C)-c1c(c(C(=O)N(C)C(C)(C)C)nn1-c1cccc(C)c1)CC2 [Example 8cd, N-tert-butyl-8-isopropoxy-7-methoxy-N-methyl-1-m-tolyl-4,5-dihydro-1H-benzo[g]indazole-3-carboxamide] |
| 0.1 to 1 µM | CCc1cccc(-n2nc(C(=O)N(C)C(C)(C)C)c3c2-c2cc(OC(C)C)c(OC)cc2CC3)c1 [Example 7cd, N-tert-butyl-1-(3-ethylphenyl)-8-isopropoxy-7-methoxy-N-methyl-4,5-dihydro-1H-benzo[g]indazole-3-carboxamide] |
| 0.1 to 1 µM | COc1cc2c(cc1OC(C)C)-c1c(c(C(=O)N(C)C(C)(C)C)nn1-c1cccc(C3CC3)c1)CC2 [Example 7cf, N-tert-butyl-1-(3-cyclopropylphenyl)-8-isopropoxy-7-methoxy-N-methyl-4,5-dihydro-1H-benzo[g]indazole-3-carboxamide] |
| 0.1 to 1 µM | COc1cc2c(cc1OC)-c1c(c(C(=O)N3CCCN(C(=O)C4CCC4)CC3)nn1-c1ccc(F)cc1)CC2 [Example 1g] |
| 0.1 to 1 µM | C=Cc1cccc(-n2nc(C(=O)N(C)C(C)(C)C)c3c2-c2cc(OC(C)C)c(OC)cc2CC3)c1 [Example 7cc, N-tert-butyl-8-isopropoxy-7-methoxy-N-methyl-1-(3-vinylphenyl)-4,5-dihydro-1H-benzo[g]indazole-3-carboxamide] |
